US20250074911A1, “MACROCYCLIC BTK INHIBITORS” (Crossfire Oncology Holding B.V., priority 2021, published 2025)
“And” between values parts separate entries of the source, which are not always exact repeats. Identical values can stand only once.

How the values were obtained:
[1] = target: full-length BTK C481S enzyme (Homo sapiens (Human), UniProt Q06187, C481S); test: Biochemical kinase assay BTK C481S (IMAP)
In short: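 IC50 values come from IMAP fluorescence polarization after quenching with progressive binding solution. The reaction ran 2 h at room temperature in the dark with 1.2 nM full-length C481S enzyme, 7 μM ATP and 50 nM fluorescein-labelled MBP-derived peptide, following a 1 h dark pre-incubation of compound with enzyme.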

wt-BTK = wt-BTK (Homo sapiens (Human), UniProt Q06187); test: Binding kinetics measurements (Surface Plasmon Resonance) on wt-BTK; conditions: for Kd: binding affinity by Surface Plasmon Resonance (SPR); for Tau (h) wt-BTK (Act): target residence time, SPR
In short: (§1)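 Kinetic constants came from double-referenced SPR sensorgrams of five ascending compound injections (3.16-316 nM, single cycle) over streptavidin-captured enzyme. Flow was 30 μl/min at 22° C with 1% DMSO. Duplicate ka, kd and KD were geometrically averaged.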

[2] = target: full-length wt-BTK enzyme (Homo sapiens (Human), UniProt Q06187); test: Biochemical kinase assay wt-BTK (IMAP)
In short: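 Compound and enzyme (final 1.2 nM) were pre-incubated for 1 h at RT, after which the reaction was started with 4 μM ATP plus 50 nM fluorescein-MBP substrate peptide. After 2 h in the dark, the IMAP progressive binding reagent stopped the reaction, and phosphorylation was read by fluorescence polarization.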

BTK C481S = BTK C481S (Homo sapiens (Human), UniProt Q06187, C481S); test: Binding kinetics measurements (Surface Plasmon Resonance) on BTK C481S; conditions: for Kd: binding affinity by Surface Plasmon Resonance (SPR); for Tau (h) BTK C418S (Act): target residence time for BTK C481S, SPR
In short: as §1

BTK T316A = BTK T316A (Homo sapiens (Human), UniProt Q06187, T316A); test: Binding kinetics measurements (Surface Plasmon Resonance) on BTK T316A; conditions: for Kd: binding affinity by Surface Plasmon Resonance (SPR); for Tau (h) BTK T316A (Act): target residence time, SPR
In short: as §1

BTK T474S = BTK T474S (Homo sapiens (Human), UniProt Q06187, T474S); test: Binding kinetics measurements (Surface Plasmon Resonance) on BTK T474S; conditions: for residence time: SPR binding kinetics, BTK T474S, read-out: Tau (h) BTK T474S (Act), target residence time (converted); for Kd: binding affinity by Surface Plasmon Resonance (SPR)
In short: as §1

REC-1 T474I cell lines = test: Cell proliferation assay REC-1 BTK T474I knock-in cells (ATPlite, 72 hours); format: cell-based; conditions: Homo sapiens, Rec1; 72 hours; read-out: IC50 REC-1 T474I
In short: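 REC-1 cells carrying CRISPR knock-in mutant BTK, single-cell cloned and sequence-confirmed, were exposed to compound for 72 h and read by ATPlite luminescence. Percentage growth was calculated against the signal at the start of incubation and against untreated 0.3% DMSO wells as maximum growth.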

[3] = system: wt-TMD8 diffuse large B-cell lymphoma cells; test: Cell proliferation assay wt-TMD8 (ATPlite, 120 hours); format: cell-based; conditions: B-cell; wt-TMD8 cells, 120 hours, ATPlite; read-out: IC50 wt-TMD8
In short: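 Readout is percentage growth from ATPlite 1Step luminescence after 5 days (120 h) compound treatment of wt-TMD8 lymphoma cells (1600/well, RPMI-1640 + 10% FBS). Time-zero signal separates growth inhibition from cell kill; 0.3% DMSO wells without compound define maximal growth.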

BTK T474I = BTK T474I (Homo sapiens (Human), UniProt Q06187, T474I); test: Binding kinetics measurements (Surface Plasmon Resonance) on BTK T474I; conditions: for Kd: binding affinity by Surface Plasmon Resonance (SPR); for Tau (h) BTK T474I (Act): target residence time, SPR
In short: as §1

[4] = system: wt-REC-1 mantle cell lymphoma cells; test: Cell proliferation assay wt-REC-1 (ATPlite, 72 hours); format: cell-based; conditions: 72 h; read-out: IC50 wt-REC-1
In short: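 Luminescent viability read over 72 h, start-of-incubation signal recorded separately to separate growth from cell death. Percentage growth referenced to compound-free 0.3% DMSO wells; IC50 from 4-parameter logistic fit.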

Chain of full-length BTK C481S enzyme (Q06187 whole entry C481S): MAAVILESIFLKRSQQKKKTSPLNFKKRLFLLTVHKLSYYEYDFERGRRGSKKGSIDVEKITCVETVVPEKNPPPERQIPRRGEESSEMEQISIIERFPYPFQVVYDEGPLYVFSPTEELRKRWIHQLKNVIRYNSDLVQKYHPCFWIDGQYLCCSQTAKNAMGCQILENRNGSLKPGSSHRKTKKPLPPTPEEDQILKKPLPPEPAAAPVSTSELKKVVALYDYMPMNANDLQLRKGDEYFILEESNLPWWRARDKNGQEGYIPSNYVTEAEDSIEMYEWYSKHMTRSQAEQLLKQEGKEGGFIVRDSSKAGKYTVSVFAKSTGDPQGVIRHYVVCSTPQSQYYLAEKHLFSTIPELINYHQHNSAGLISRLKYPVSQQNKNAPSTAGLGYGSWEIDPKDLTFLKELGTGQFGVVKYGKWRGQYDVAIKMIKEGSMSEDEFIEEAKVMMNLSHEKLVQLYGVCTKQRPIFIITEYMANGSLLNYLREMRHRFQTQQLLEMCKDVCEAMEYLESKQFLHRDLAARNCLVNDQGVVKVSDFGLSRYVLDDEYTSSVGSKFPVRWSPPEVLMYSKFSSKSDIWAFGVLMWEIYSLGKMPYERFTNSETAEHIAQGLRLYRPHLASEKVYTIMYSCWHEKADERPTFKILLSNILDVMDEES
Chain of BTK C481S (Q06187 whole entry C481S): as above
Chain of wt-BTK (Q06187 whole entry): as the sequence (Q06187 whole entry C481S) above, with S481C counted along it
Chain of full-length wt-BTK enzyme (Q06187 whole entry): as the sequence (Q06187 whole entry C481S) above, with S481C counted along it
Chain of BTK T316A (Q06187 whole entry T316A): as the sequence (Q06187 whole entry C481S) above, with T316A, S481C counted along it
Chain of BTK T474I (Q06187 whole entry T474I): as the sequence (Q06187 whole entry C481S) above, with T474I, S481C counted along it
Chain of BTK T474S (Q06187 whole entry T474S): as the sequence (Q06187 whole entry C481S) above, with T474S, S481C counted along it

SMILES | IC50 [1] [nM] | Kd (wt-BTK) [nM] | Tau (h) wt-BTK (Act) (wt-BTK) [h] | IC50 [2] [nM] | Kd (BTK C481S) [nM] | Tau (h) BTK C418S (Act) (BTK C481S) [h] | Kd (BTK T316A) [nM] | Tau (h) BTK T316A (Act) (BTK T316A) [h] | residence time (BTK T474S) [h] | Kd (BTK T474S) [nM] | IC50 [3] [nM] | Kd (BTK T474I) | Tau (h) BTK T474I (Act) (BTK T474I) [h] | IC50 [4] [nM] | IC50 (REC-1 T474I cell lines) [nM]
Nc1ncc2c3c1c(-c1ccc(C(=O)Nc4cc(C(F)(F)F)ccn4)cc1)nn3[C@@H]1CCC[C@H](C1)NC(=O)C1CCN1CC/C=C/2 (some centres unmarked) [Example 34] | < 5 | < 5 | 6.06 | < 5 | < 5 | 9.06 | < 5 | 5.41 | 8.1 | < 3 | < 100 | < 2 nM | 1.70 | < 100 | < 100
Nc1ncc2c3c1c(-c1ccc(C(=O)Nc4cc(C(F)(F)F)ccn4)cc1)nn3[C@@H]1CCCN(C1)C(=O)CCCCCC/C=C/2 [Example 79] | < 5 | < 5 | 8.24 | < 5 | < 5 | 7.11 | < 5 | 3.23 | 6.2 | < 3 | < 100 | < 2 nM | 1.80 | < 100 | 100 to 500
C[C@@H]1CCn2nc(-c3ccc(C(=O)Nc4cc(C#N)ccn4)cc3)c3c(N)ncc(c32)/C=C/CCOCCC(=O)N1 [Example 153] | < 5 | < 5 | 1.29 | < 5 | < 5 | 1.67 | < 5 | – | 1.97 | < 3 | < 100 | < 2 nM | – | 100 to 1000 | 500 to 10000
C[C@@H]1C[C@@H](C)n2nc(-c3ccc(C(=O)Nc4cc(C(F)(F)F)ccn4)cc3)c3c(N)ncc(c32)/C=C/CCCCCC(=O)N1 [Example 172] | < 5 | < 5 | 4.83 | < 5 | < 5 | 4.28 | < 5 | 2.18 | 18.9 | < 3 | < 100 | < 2 nM | 2.35 | < 100 | < 100
C[C@@H]1CCn2nc(-c3ccc(C(=O)Nc4cc(C(F)(F)F)ccn4)cc3)c3c(N)ncc(c32)/C=C/CCOCC(=O)N1 [Example 59] | < 5 | < 5 | 1.10 | < 5 | < 5 | 2.05 | < 5 | 1.04 | – | < 3 | < 100 | 10 to 50 nM and < 5 nM | – | < 100 | 500 to 10000
Nc1ncc2c3c1c(-c1ccc(C(=O)Nc4cc(C(F)(F)F)ccn4)cc1)nn3[C@@H]1CCCN(C1)C(=O)CCCCCC(O)/C=C/2 (some centres unmarked) [Example 83] | < 5 | < 5 | 2.95 | < 5 | < 5 | 4.44 | < 5 | 1.36 | 3.04 | < 3 | < 100 | < 2 nM | – | < 100 | 500 to 10000
C[C@H]1CC(=O)N[C@@H]2CCC[C@H](C2)n2nc(-c3ccc(C(=O)Nc4cc(C(F)(F)F)ccn4)cc3)c3c(N)ncc(c32)/C=C/CN1C [Example 151] | < 5 | < 5 | 7.58 | < 5 | < 5 | 8.25 | – | 1.89 | 2.11 | < 3 | < 100 | < 2 nM | 0.70 | 100 to 1000 | 100 to 500
C[C@@H]1CCn2nc(-c3ccc(C(=O)Nc4cc(C(F)(F)F)ccn4)cc3)c3c(N)ncc(c32)/C=C/COCCC(=O)N1 [Example 71] | < 5 | < 5 | 7.08 | < 5 | < 5 | 4.52 | < 5 | 4.64 | 4.32 | < 3 | < 100 | < 2 nM | 0.52 | < 100 | 100 to 500

Second part, led by results:

IC50 [1] [nM] | Kd (wt-BTK) [nM] | Tau (h) wt-BTK (Act) (wt-BTK) [h] | IC50 [2] [nM] | Kd (BTK C481S) [nM] | Tau (h) BTK C418S (Act) (BTK C481S) [h] | Kd (BTK T316A) [nM] | Tau (h) BTK T316A (Act) (BTK T316A) [h] | residence time (BTK T474S) [h] | Kd (BTK T474S) [nM] | IC50 [3] [nM] | Kd (BTK T474I) | Tau (h) BTK T474I (Act) (BTK T474I) [h] | IC50 [4] [nM] | SMILES | IC50 (REC-1 T474I cell lines) [nM]
< 5 | < 5 | 5.15 | < 5 | < 5 | 2.42 | < 5 | 5.27 | 1.47 | < 3 | < 100 | < 2 nM | 3.34 | < 100 | C[C@@H]1CC(=O)N[C@@H]2CCC[C@H](C2)n2nc(-c3ccc(C(=O)Nc4cc(C(F)(F)F)ccn4)cc3)c3c(N)ncc(c32)/C=C/CCO1 [Example 157] | < 100
< 5 | < 5 | 2.52 | < 5 | < 5 | 1.51 | < 5 | 2.48 | 1.5 | < 3 | < 100 | < 2 nM | – | 100 to 1000 | C[C@H]1CC(=O)N[C@@H]2CCCC(C2)n2nc(-c3ccc(C(=O)Nc4cc(C(F)(F)F)ccn4)cc3)c3c(N)ncc(c32)/C=C/CCN1 [Example 150] | 100 to 500
< 5 | < 5 | 5.05 | < 5 | < 5 | 2.04 | < 5 | 3.37 | 4.09 | < 3 | < 100 | < 2 nM | 2.55 | < 100 | Nc1ncc2c3c1c(-c1ccc(C(=O)Nc4cc(C(F)(F)F)ccn4)cc1)nn3[C@@H]1CCC[C@H](C1)NC(=O)CCCOC/C=C/2 [Example 27] | < 100
< 5 | < 5 | 6.80 | < 5 | < 5 | 2.91 | < 5 | 2.28 | 4.41 | < 3 | < 100 | < 2 nM | – | < 100 | Nc1ncc2c3c1c(-c1ccc(C(=O)Nc4cc(C(F)(F)F)ccn4)cc1)nn3[C@@H]1CCC[C@H](C1)NC(=O)COCC/C=C/2 [Example 6] | 100 to 500
< 5 | < 5 | 1.02 | < 5 | < 5 | 2.60 | < 5 | – | 1.53 | < 3 | < 100 | 10 to 50 nM and < 5 nM | – | 100 to 1000 | CN1C/C=C/c2cnc(N)c3c(-c4ccc(C(=O)Nc5cc(C(F)(F)F)ccn5)cc4)nn(c23)[C@@H]2CCC[C@H](C2)NC(=O)C1 [Example 9] | 500 to 10000
